Like-named read-outs stand apart in the source and are kept apart here.
Key:
[1] = log P determination by HPLC on reverse-phase column (C 18), acidic range pH 2.3 (EEC Directive 79/831 Annex V. A8); assay type: physicochemical; conditions: for logP: Table 1 (I-c); for chromatographic logP: reverse-phase HPLC column (C 18)
Description: The stated log P values were determined in accordance with EEC Directive 79/831 Annex V. A8 by HPLC (High Performance Liquid Chromatography) on a reverse-phase column (C 18). Temperature: 43° C. Mobile phases for the determination in the acidic range (pH 2.3): 0.1% aqueous phosphoric acid, acetonitrile; linear gradient from 10% acetonitrile to 90% acetonitrile. Calibration was carried out using unbranched alkan-2-ones (having 3 to 16 carbon atoms) with known log P values (determination of the log P values by the retention times using linear interpolation between two successive alkanones).

Podosphaera leucotricha = test: Podosphaera test (apple)/protective; assay type: in vivo; conditions: protective, application rate 100 g/ha, evaluation 10 days after inoculation, 0% = control, 100% = no infection
Description: (§1) To produce a suitable preparation of active compound, 1 part by weight of active compound is mixed with the stated amounts of solvents and emulsifier, and the concentrate is diluted with water to the desired concentration.
To test for protective activity, young plants are sprayed with the preparation of active compound at the stated application rate. After the spray coating has dried on, the plants are inoculated with an aqueous spore suspension of Podosphaera leucotricha. The plants are then placed in a greenhouse at about 23° C. and a relative atmospheric humidity of about 70%.
(§2) Evaluation is carried out 10 days after the inoculation. 0% means an efficacy which corresponds to that of the control, whereas an efficacy of 100% means that no infection is observed.

Venturia inaequalis = test: Venturia test (apple)/protective; assay type: in vivo; conditions: protective, application rate 100 g/ha, evaluation 10 days after inoculation, 0% = control, 100% = no infection
Description: as §1
To test for protective activity, young plants are sprayed with the preparation of active compound at the stated application rate. After the spray coating has dried on, the plants ate inoculated with an aqueous conidia suspension of the apple scab pathogen Venturia inaequalis and then remain in an incubation cabinet as about 20° C. and 100% relative atmospheric humidity for 1 day. The plants are then placed in a greenhouse at about 21° C. and a relative atmospheric humidity of about 90%.
as §2

Botrytis cinerea = test: Botrytis test (bean)/protective; assay type: in vivo; conditions: protective, application rate 500 g/ha, evaluation 2 days after inoculation (size of infected areas), 0% = control, 100% = no infection
Description: as §1
To test for protective activity, young plants are sprayed with the preparation of active compound at the stated application rate. After the spray coating has dried on 2 small pieces of agar colonized by Botrytis cinerea are placed onto each leaf. The inoculated plants are placed in a dark chamber at about 20° C. and 100% relative atmospheric humidity.
2 days after the inoculation, the size of the infected areas on the leaves is evaluated. 0% means an efficacy which corresponds to that of the control, whereas an efficacy of 100% means that no infection is observed.

Puccinia recondita = test: Puccinia test (wheat)/protective; assay type: in vivo; conditions: 240 h, protective, application rate 500 g/ha, evaluation 10 days after inoculation, 0% = control, 100% = no infection, read-out: Efficacy in %
Description: (§3) To produce a suitable preparation of active compound, 1 part by weight of active compound is mixed with the stated amounts of solvent and emulsifier, and the concentrate is diluted with water to the desired concentration.
To test for protective activity, young plants are sprayed with the preparation of active compound at the stated application rate. After the spray coating has dried on, the plants are sprayed with a conidia suspension of Puccinia recondita. The plants remain in an incubation cabinet at 20° C. and 100% relative atmospheric humidity for 48 hours. The plants are then placed in a greenhouse at a temperature of about 20° C. and a relative atmospheric humidity of 80%.
as §2

Alternaria solani = test: Alternaria test (tomato)/protective; assay type: in vivo; conditions: protective, application rate 750 g/ha, evaluation 7 days after inoculation, 0% = control, 100% = no infection
Description: as §3
To test for protective activity, young tomato plants are sprayed with the preparation of active compound at the stated application rate. 1 day after the treatment, the plants are inoculated with a spore suspension of Alternaria solani and then remain at 100% relative atmospheric humidity and 20° C. for 24 h. The plants then remain at 96% relative atmospheric humidity and a temperature of 20° C.
Evaluation is carried out 7 days after the inoculation. 0% means an efficacy which corresponds to that of the control, whereas an efficacy of 100% means that no infection is observed.

[2] = pH 2.3, HPLC C18, 43° C., main diastereomer or, where several values in a cell, the individual diastereomers
[3] = pH 2.3, Table 1 (I-c), pH 2.3, HPLC C18, 43° C., main diastereomer or, where several values in a cell, the individual diastereomers, read-out: logP

With `Cc1nc(C(F)F)c(C(=O)NC2CCCCC2C(C)CC(C)C)s1` (centres unmarked) [I-c-4, 4-(difluoromethyl)-N-[2-(1,3-dimethylbutyl)cyclohexyl]-2-methyl-1,3-thiazole-5-carboxamide] as the molecule, how does the “log P (pH 2.3)” value ([1]; Example 1, pH 2.3, two values = mixture of diastereomers) read?
Its value is 4.53.

What about the logP [1, 2] of the same molecule?
Its logP is 4.53.

And the chromatographic logP [1, 3]?
Its chromatographic logP is 4.45.

And the chromatographic logP ([1]; pH 2.3, text of Example 1, pH 2.3, two values = mixture of diastereomers, read-out: log P (pH 2.3))?
Its chromatographic logP is 4.45.

What about the Efficacy in % (Podosphaera leucotricha) of the same molecule?
The Efficacy in % was 100%.

What about the Efficacy in % (Venturia inaequalis) of the same molecule?
The Efficacy in % was 98%.

What about the Efficacy in % (Botrytis cinerea) of the same molecule?
Its Efficacy in % is 95%.

What about the pest or weed control at 500 g/ha (Puccinia recondita) of the same molecule?
Its pest or weed control at 500 g/ha is 100%.

And the Efficacy in % (Alternaria solani)?
Its Efficacy in % is 100%.

With `CC(C)CC(C)C1CCCCC1NC(=O)c1nccnc1Cl` (centres unmarked) [I-c-5] as the molecule, how does the logP [1, 2] read?
Its logP is 4.23.

What about the chromatographic logP [1, 3] of the same molecule?
The chromatographic logP was 4.12.

What about the Efficacy in % (Podosphaera leucotricha) of the same molecule?
The Efficacy in % was 100%.

And the Efficacy in % (Venturia inaequalis)?
The Efficacy in % was 100%.

What about the Efficacy in % (Botrytis cinerea) of the same molecule?
Its Efficacy in % is 99%.

What about the pest or weed control at 500 g/ha (Puccinia recondita) of the same molecule?
The pest or weed control at 500 g/ha was 100%.

And the Efficacy in % (Alternaria solani)?
The Efficacy in % was 100%.

For `CC(C)CC(C)C1CCCCC1NC(=O)c1cn(C)nc1C(F)F` (centres unmarked) [I-c-7], which logP [1, 2] is on record?
Its logP is 4.28.

And the chromatographic logP [1, 3]?
Its chromatographic logP is 3.88.

What about the Efficacy in % (Podosphaera leucotricha) of the same molecule?
The Efficacy in % was 100%.

What about the Efficacy in % (Venturia inaequalis) of the same molecule?
Its Efficacy in % is 100%.

And the Efficacy in % (Botrytis cinerea)?
The Efficacy in % was 94%.

And the pest or weed control at 500 g/ha (Puccinia recondita)?
Its pest or weed control at 500 g/ha is 100%.

And the Efficacy in % (Alternaria solani)?
The Efficacy in % was 100%.
